Patent US20200031785A1, “METHODS FOR TREATING CHRONIC PAIN AND OPIOID DEPENDENCE USING ADENYLYL CYCLASE INHIBITORS” (Purdue Research Foundation, priority 2017, published 2020)

Columns and labels:
hAC1 = target: T1, hAC1 (Homo sapiens, UniProt Q08828); assay: Cyclic AMP accumulation in HEK cells stably expressing AC1, stimulated with A23187 (HTRF); type: cell-based; details: HEK-AC1 cells; for inhibition at 30 µM: HEK293; for IC50: read-out: HEK-AC1 IC50
T1 construct: expressed in transfected cells
Experimental: The development and mechanistic characterization of AC1-selective small molecule inhibitors is believed to provide novel non-opioid weapons in the war on chronic pain. We identified our initial hits via screening 10,000 selected compounds from the Life Chemicals collection. The screen was carried out using HEK cells stably expressing AC1 (HEK-AC1) and cyclic AMP accumulation was stimulated using the Ca^2+ ionophore, A23187 to selectively activate AC1. Compounds with potential chemical liabilities and PAINs were removed from further evaluation (Baell and Holloway, J. Med. Chem. 2010, 53, 2719-2740).
(§1) Fresh powders of several robust inhibitors (>90% inhibition) were evaluated in multiple confirmation assays assessing the dose response relationship for inhibiting AC1 and AC8 activity. Confirmation assays used A23817 to selectively stimulate recombinant AC1 or AC8 in the HEK cell background (Cumbay and Watts (2001), J. Pharmacol Exp Ther 297:1201-1399). This approach takes advantage of one unique regulatory property of AC1 for the development of selective inhibitors. Both AC1 and AC8 are robustly activated by Ca^2+/CaM under a variety of conditions, whereas the effects of Ca^2+/CaM on AC3 are modest and conditional requiring activation by G proteins. Previous studies have identified unique Ca^2+/CaM binding domains as one possible site of interaction to achieve AC1 (vs. AC8) selectivity (Masada et al., 2012, Biochemistry 51:7917-7929).
(§2) The primary technology we employed to measure cAMP accumulation was a homogenous time-resolved fluorescence (HTRF) assay, the same technology utilized in the primary screen. […] This could be due to either 1) the chemical scaffolds are exquisitely selective toward the AC family of enzymes or 2) the library has not been screened against a sufficient number of targets. The answer is likely a combination of the two; nonetheless, the lack of biological data to date bodes well for these series and any potential off-target promiscuity.
(§3) Human embryonic kidney (HEK) cells stably expressing AC1, AC8, or AC1 with the MOR were cultured in Dulbecco's Modified Eagle Medium (Life Technologies, Grand Island, N.Y.) supplemented with 5% bovine calf serum (Hyclone, Logan, Utah), 5% fetal clone I (Hyclone), Antibiotic-Antimycotic (Life Technologies), and G418 (Invivogen, San Diego, Calif.) (HEK-AC1), or hygromycin B (Fisher Scientific, Pittsburgh, Pa.) (HEK-AC8), or G418 and puromycin (Sigma-Aldrich) (HEK-AC1/MOR). Chinese hamster ovary (CHO) cells expressing the MOR (CHO-MOR) in the PathHunter® β-Arrestin GPCR assay platform were purchased from DiscoveRx (Freemont, Calif.). Cells were grown in Ham's F12 media supplemented with 1 mM L-glutamine (Thermo Scientific, West Palm Beach, Fla.), 10% fetal bovine serum (Hyclone), 50 U/ml penicillin, 50 μg/ml streptomycin (Life Technologies), G418 and hygromycin B. Cells were grown and frozen as previously described (J. M. Conley, et al., J Vis Exp, e51218 (2014)).
(§4) Cyclic AMP accumulation was measured as previously described (Brust, et al., J. Pharmacol. Exp. Ther. 352, 480-493(2015)). Briefly, cryopreserved cells were thawed, resuspended in optiMEM (Life Technologies), and plated in white, flat bottom, low-volume, tissue culture-treated 384 well plates (PerkinElmer, Shelton, Conn.). Plates with cells were incubated in a 37° C. humidified incubator for 1 h. Inhibitors were added and plates were incubated at room temperature for 30 min followed by the addition of AC stimulants in the presence of 500 μM IBMX. Cells were incubated at room temperature for 1 h and cAMP accumulation was measured using Cisbio's cAMP kit (Cisbio Bioassays, Bedford, Mass.) according to the manufacturer's instructions.

hAC8 = target: T2, hAC8 (Homo sapiens, UniProt P40145); assay: Cyclic AMP accumulation in HEK cells stably expressing AC8, stimulated with A23187 (HTRF); type: cell-based; details: HEK-AC8 cells; for inhibition at 30 µM: HEK293; for IC50: read-out: HEK-AC8 IC50
T2 construct: expressed in transfected cells
Experimental: as §1, §2, §3, §4

T1 sequence (Q08828 whole entry): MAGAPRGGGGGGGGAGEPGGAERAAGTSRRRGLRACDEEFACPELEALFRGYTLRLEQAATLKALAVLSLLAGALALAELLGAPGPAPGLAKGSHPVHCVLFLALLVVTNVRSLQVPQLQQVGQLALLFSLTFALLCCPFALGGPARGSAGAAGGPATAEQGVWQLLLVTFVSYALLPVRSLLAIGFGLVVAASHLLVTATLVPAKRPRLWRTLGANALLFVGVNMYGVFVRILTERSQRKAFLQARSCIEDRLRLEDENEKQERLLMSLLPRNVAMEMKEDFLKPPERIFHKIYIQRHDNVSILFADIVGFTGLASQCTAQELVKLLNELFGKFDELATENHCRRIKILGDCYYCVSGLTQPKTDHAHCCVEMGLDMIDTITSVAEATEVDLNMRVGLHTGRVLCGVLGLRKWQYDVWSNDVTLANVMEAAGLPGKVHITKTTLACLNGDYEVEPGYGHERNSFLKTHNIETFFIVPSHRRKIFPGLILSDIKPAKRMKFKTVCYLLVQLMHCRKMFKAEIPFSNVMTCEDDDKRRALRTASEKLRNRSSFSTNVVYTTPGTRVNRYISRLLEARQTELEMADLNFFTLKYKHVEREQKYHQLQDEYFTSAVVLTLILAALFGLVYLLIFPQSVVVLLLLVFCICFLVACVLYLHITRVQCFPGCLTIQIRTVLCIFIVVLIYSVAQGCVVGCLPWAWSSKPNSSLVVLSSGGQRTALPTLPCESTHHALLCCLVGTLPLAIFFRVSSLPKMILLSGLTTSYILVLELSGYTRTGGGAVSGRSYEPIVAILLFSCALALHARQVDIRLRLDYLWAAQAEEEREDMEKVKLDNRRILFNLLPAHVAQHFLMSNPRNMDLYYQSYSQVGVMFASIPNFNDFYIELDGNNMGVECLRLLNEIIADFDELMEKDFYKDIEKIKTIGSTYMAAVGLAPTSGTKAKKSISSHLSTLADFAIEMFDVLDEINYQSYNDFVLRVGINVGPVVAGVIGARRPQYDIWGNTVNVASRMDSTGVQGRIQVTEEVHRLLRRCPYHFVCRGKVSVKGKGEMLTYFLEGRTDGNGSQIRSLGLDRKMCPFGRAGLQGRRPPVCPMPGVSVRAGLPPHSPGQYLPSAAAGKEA
T2 sequence (P40145 whole entry): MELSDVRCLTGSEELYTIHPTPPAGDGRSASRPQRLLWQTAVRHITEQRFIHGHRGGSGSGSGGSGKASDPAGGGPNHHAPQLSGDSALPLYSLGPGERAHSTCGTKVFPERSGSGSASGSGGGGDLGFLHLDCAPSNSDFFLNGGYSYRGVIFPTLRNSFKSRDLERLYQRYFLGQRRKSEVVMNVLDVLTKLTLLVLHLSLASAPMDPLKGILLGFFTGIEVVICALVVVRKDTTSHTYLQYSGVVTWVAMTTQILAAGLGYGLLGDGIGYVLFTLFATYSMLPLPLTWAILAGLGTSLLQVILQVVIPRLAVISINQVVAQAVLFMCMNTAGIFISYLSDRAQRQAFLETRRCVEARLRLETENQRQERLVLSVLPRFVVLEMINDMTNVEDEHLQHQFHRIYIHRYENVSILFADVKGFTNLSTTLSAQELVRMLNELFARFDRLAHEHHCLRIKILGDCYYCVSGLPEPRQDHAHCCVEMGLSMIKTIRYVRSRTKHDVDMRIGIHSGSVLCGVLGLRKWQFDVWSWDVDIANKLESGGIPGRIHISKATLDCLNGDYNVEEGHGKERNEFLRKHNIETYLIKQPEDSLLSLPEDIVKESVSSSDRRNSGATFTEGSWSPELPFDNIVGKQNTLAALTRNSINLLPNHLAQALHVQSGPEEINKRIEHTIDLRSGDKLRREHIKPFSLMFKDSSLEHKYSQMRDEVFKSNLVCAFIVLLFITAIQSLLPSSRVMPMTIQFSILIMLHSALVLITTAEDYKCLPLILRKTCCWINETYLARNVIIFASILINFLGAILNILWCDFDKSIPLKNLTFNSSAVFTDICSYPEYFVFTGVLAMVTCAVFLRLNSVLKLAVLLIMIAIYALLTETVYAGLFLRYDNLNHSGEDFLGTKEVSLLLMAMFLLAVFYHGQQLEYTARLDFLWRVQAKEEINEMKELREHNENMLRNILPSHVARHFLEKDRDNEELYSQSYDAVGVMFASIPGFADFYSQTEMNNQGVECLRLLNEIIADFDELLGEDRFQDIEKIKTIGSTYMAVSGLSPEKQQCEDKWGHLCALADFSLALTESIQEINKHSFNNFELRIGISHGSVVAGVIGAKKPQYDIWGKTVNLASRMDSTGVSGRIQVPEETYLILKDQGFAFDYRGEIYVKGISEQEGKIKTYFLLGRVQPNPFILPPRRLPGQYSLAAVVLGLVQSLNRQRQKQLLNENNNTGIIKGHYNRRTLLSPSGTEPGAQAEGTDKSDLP

SMILES | inhibition at 30 µM (hAC1) | IC50 (hAC1) | inhibition at 30 µM (hAC8) | IC50 (hAC8)
CC(C)Oc1ccc(C(=O)Nc2nnc(-c3ccc4c(c3)OCCO4)o2)cc1 [AC10037, N-(5-(2,3-dihydrobenzo[b][1,4]dioxin-6-yl)-1,3,4-oxadiazol-2-yl)-4-isopropoxybenzamide] | 88 ± 3% | 7.5 ± 0.7 µM | 39 ± 7% | 56 ± 23 µM
CC(C)Oc1ccc(C(=O)Nc2nnc(C3CCCCC3)o2)cc1 [AC10025, N-(5-cyclohexyl-1,3,4-oxadiazol-2-yl)-4-isopropoxybenzamide] | 86 ± 7% | 10.1 ± 1 µM | 35 ± 8% | 53 ± 21 µM
Cc1ccc(C(=O)Nc2nnc(-c3ccc(F)cc3)o2)cc1 [AC10031, N-(5-(4-fluorophenyl)-1,3,4-oxadiazol-2-yl)-4-methylbenzamide] | 80 ± 10% | 7.3 ± 2 µM | 31 ± 6% | 61 ± 33 µM
O=C(Nc1nnc(-c2ccc3c(c2)CCCC3)o1)c1ccc(Br)cc1 [AC10005, 4-bromo-N-(5-(5,6,7,8-tetrahydronaphthalen-2-yl)-1,3,4-oxadiazol-2-yl)benzamide] | 74 ± 4% | 12.2 ± 3 µM | 64 ± 13% | 27 ± 8 µM
CC(C)Oc1ccc(C(=O)Nc2nnc(-c3ccc4c(c3)CCCC4)o2)cc1 [AC10010, 4-isopropoxy-N-(5-(5,6,7,8-tetrahydronaphthalen-2-yl)-1,3,4-oxadiazol-2-yl)benzamide] | 77 ± 13% | 9.9 ± 7 µM | 63 ± 7% | 12.6 ± 6 µM
O=C(Nc1nnc(-c2ccc3c(c2)CCCC3)o1)c1cccc(C(F)(F)F)c1 [AC10026, N-(5-(5,6,7,8-tetrahydronaphthalen-2-yl)-1,3,4-oxadiazol-2-yl)-3-(trifluoromethyl)benzamide] | 100 ± 1% | 1.6 ± 0.2 µM | 82 ± 7% | 7.9 ± 3 µM
CSc1cccc(C(=O)Nc2nnc(C3CCCCC3)o2)c1 [AC10011, N-(5-cyclohexyl-1,3,4-oxadiazol-2-yl)-3-(methylthio)benzamide] | 77 ± 8% | 6.6 ± 3 µM | 43 ± 6% | 61 ± 22 µM
COc1ccc(C(=O)Nc2nnc(-c3ccc(F)cc3)o2)cc1 [AC10039, N-(5-(4-fluorophenyl)-1,3,4-oxadiazol-2-yl)-4-methoxybenzamide] | 73 ± 4% | – | 20 ± 6% | –
Cc1ccc(C(=O)Nc2nnc(C3CCCCC3)o2)cc1C [AC10024, N-(5-cyclohexyl-1,3,4-oxadiazol-2-yl)-3,4-dimethylbenzamide] | 85 ± 4% | 8.1 ± 2 µM | 57 ± 7% | 44 ± 6 µM
COc1ccc(C(=O)Nc2nnc(-c3cccs3)o2)cc1 [AC10018, 4-methoxy-N-(5-(thiophen-2-yl)-1,3,4-oxadiazol-2-yl)benzamide] | 80 ± 5% | 15 ± 2 µM | 10 ± 7% | –
COc1cccc(C(=O)Nc2nnc(-c3ccc4c(c3)CCCC4)o2)c1 [AC10016, 3-methoxy-N-(5-(5,6,7,8-tetrahydronaphthalen-2-yl)-1,3,4-oxadiazol-2-yl)benzamide] | 99% | 3.1 ± 0.4 µM | 55 ± 3% | 25 ± 4 µM
O=C(Nc1nnc(-c2cccs2)o1)c1ccccc1 [AC10006, N-(5-(thiophen-2-yl)-1,3,4-oxadiazol-2-yl)benzamide] | 56 ± 5% | 29 ± 3 µM | 18 ± 2% | 101 ± 3 µM
CSc1cccc(C(=O)Nc2nnc(-c3ccc4c(c3)CCCC4)o2)c1 [AC10013, 3-(methylthio)-N-(5-(5,6,7,8-tetrahydronaphthalen-2-yl)-1,3,4-oxadiazol-2-yl)benzamide] | 97 ± 4% | 1.7 ± 0.7 µM | 68 ± 5% | 9.4 ± 2 µM
CSc1ccc(C(=O)Nc2nnc(-c3ccc4c(c3)OCCO4)o2)cc1 [AC10020, 4-methylthio-N-(5-(2,3-dihydrobenzo[b][1,4]dioxin-6-yl)-1,3,4-oxadiazol-2-yl)benzamide] | 88 ± 5% | 9.5 ± 1 µM | 37 ± 9% | 76 ± 39 µM
Cc1ccc(C(=O)Nc2nnc(-c3ccc4c(c3)CCCC4)o2)cc1 [AC10033, 4-methyl-N-(5-(5,6,7,8-tetrahydronaphthalen-2-yl)-1,3,4-oxadiazol-2-yl)benzamide] | 100 ± 1% | 3.4 ± 1 µM | 60 ± 8% | 25 ± 6 µM
Cc1ccc(C(=O)Nc2nnc(C3CCCCC3)o2)cc1 [AC10032, N-(5-cyclohexyl-1,3,4-oxadiazol-2-yl)-4-methylbenzamide] | 78 ± 4% | 15.8 ± 2 µM | 1 ± 12% | –

Continued, values first:

inhibition at 30 µM (hAC1) | IC50 (hAC1) | inhibition at 30 µM (hAC8) | IC50 (hAC8) | SMILES
100 ± 1% | 3.7 ± 1 µM | 83 ± 7% | 7 ± 1 µM | Cc1ccc(C(=O)Nc2nnc(C3CCCCC3)o2)cc1C(F)(F)F [AC10071, N-(5-cyclohexyl-1,3,4-oxadiazol-2-yl)-4-methyl-3-(trifluoromethyl)benzamide]
97 ± 1% | 5 ± 1 µM | 80 ± 9% | 6 ± 1 µM | COc1cc(C(=O)Nc2nnc(-c3ccc(F)cc3)o2)cc(C(F)(F)F)c1 [AC10068, N-(5-(4-fluorophenyl)-1,3,4-oxadiazol-2-yl)-3-methoxy-5-(trifluoromethyl)benzamide]
98 ± 1% | 1.2 ± 0.2 µM | 88 ± 2% | 2 ± 0.4 µM | CCc1ccc(C(=O)Nc2nnc(-c3ccc4c(c3)CCCC4)o2)cc1 [AC10062, 4-ethyl-N-(5-(5,6,7,8-tetrahydronaphthalen-2-yl)-1,3,4-oxadiazol-2-yl)benzamide]
94 ± 2% | 6.4 ± 1 µM | 34 ± 11% | 46 ± 13 µM | COc1ccc(C(=O)Nc2nnc(-c3ccc4c(c3)CCCC4)o2)cc1 [AC10041, 4-methoxy-N-(5-(5,6,7,8-tetrahydronaphthalen-2-yl)-1,3,4-oxadiazol-2-yl)benzamide]
73 ± 1% | 22 ± 3 µM | 6 ± 16% | – | COc1ccc(C(=O)Nc2nnc(C3CCCCC3)o2)cc1 [AC10040, N-(5-cyclohexyl-1,3,4-oxadiazol-2-yl)-4-methoxybenzamide]
99 ± 0.4% | 1 ± 0.3 µM | 90 ± 1% | 4.2 ± 0.2 µM | O=C(Nc1nnc(-c2ccc3c(c2)CCCC3)o1)c1cccc(F)c1 [AC10059, 3-fluoro-N-(5-(5,6,7,8-tetrahydronaphthalen-2-yl)-1,3,4-oxadiazol-2-yl)benzamide]
93 ± 5% | 4.6 ± 2 µM | 75 ± 12% | 9 ± 5 µM | Cc1ccc(C(=O)Nc2nnc(-c3ccc(F)cc3)o2)cc1C(F)(F)F [AC10067, N-(5-(4-fluorophenyl)-1,3,4-oxadiazol-2-yl)-4-methyl-3-(trifluoromethyl)benzamide]
85 ± 4% | 9.1 ± 3 µM | 78 ± 13% | 2.4 ± 0.02 µM | Cc1cc(C(=O)Nc2nnc(-c3ccc4c(c3)CCCC4)o2)cc(C(F)(F)F)c1 [AC10072, 3-methyl-N-(5-(5,6,7,8-tetrahydronaphthalen-2-yl)-1,3,4-oxadiazol-2-yl)-5-(trifluoromethyl)benzamide]
99 ± 1% | – | 90 ± 0.4% | – | O=C(Nc1nnc(-c2ccc3c(c2)CCCC3)o1)c1ccc(Cl)cc1 [AC10061, 4-chloro-N-(5-(5,6,7,8-tetrahydronaphthalen-2-yl)-1,3,4-oxadiazol-2-yl)benzamide]
